Data published in patent US20040242590A1, “Pharmaceutical composition comprising gamma-butyrobetaine” (priority 2001, published 2004).
“Also recorded” adds a separate entry of the source. Where a name gives a salt, the structure may show the parent alone.

Assays:
[1] = test system: copulating activity of male rats; assay: rat copulating behaviour in state of physiological depression; format: in vivo, Wistar rats
Description: The pharmacological effects of GBB, THP and their combination on the sexual activity of mammals was investigated by a model based on rat copulating behaviour in state of physiological depression.
Experiments were conducted on adult Wistar rats of both sexes with initial body weight of 300-330 g. During the experiment, the animals were kept in standard crates in groups of 6. The feed was a standartized diet R70 (LABFOR, Lactamin AB, Sweden). The room temperature was kept at 21-23° C., relative humidity at 65±10%, 12 hour light/darkness cycle. During one week before the experiment it was established that the average water consumption by the rats was 8.2-12% (average —10%) of their body mass.
Male rats were distributed randomly into 4 groups, each of 6 animals, and supplied for 6 weeks with the following aqueous solutions:
Group 1 (Control Group)—ding water without any additives;
Group 2 (GBB Group)—drinking water was supplemented by gamma-butyrobetaine (0.015% by weight), resulting in the average daily gamma-butyrobetaine intake of 15 mg/kg;
Group 3 (THP Group)—drinking water was supplemented by THP (0.06% by weight), resulting in the average daily THP intake of 60 mg/kg;
Group 4 (GBB+THP Group)—drinking water was supplemented by THP (0.06% by weight) and gamma-butyrobetaine (0.015% by weight), resulting in the average daily […]) intake of 60 mg/kg and gamma-butyrobetaine intake of 15 mg/kg.
The copulating activity of male rats was tested four times: after one week, after four weeks, after six weeks and 48-50 hours after the discontinuation of substance intake, when all animals were receiving drinking water without additives.
The tests were conducted between 10 and 12 a.m. 6 male rats of one group were placed into a clean, well illuminated crate (box). After 5 min. adaptation period 2 female rats were placed into the box for 10 minutes. For each male rat the following data were collected:
1) copulating intensity (number of copulations during the exposition period);
3) postcoital period—the behaviour of male rats during 5 min. period after the removal of females. The postcoital behaviour was characterized by following marks: 0—the animal is passive, lays down; 1—the rat is quiet; grooming; 2—the rat is mobile, rutting; 3—the animal is active, aggressive.
The female rats used were in the estrus phase, induced by i.p. injection of 0.2 ml 0.1% estradiol dipropionate 48 h before the test.

[2] = test system: intracorporeal pressure (corpus cavernosum penis); assay: intracorporeal pressure in narcotized rats, intracavernous injection; format: in vivo; conditions: for Increase of intracorporeal pressure, % of papaverine: in % of the increase produced by papaverine
Description: (§1) The influence of the experimental substances on the penile erection was evaluated using the experimental model, where changes of intracorporeal pressure was measured (Chen K K et al. J Urol, 1992;147:1124). Rats were anesthetized by sodium pentobarbital (50 mg/kg i.p. plus additionally 8 mg/kg/h i.v.). Body temperature was kept at 37-37.4° C. (rectal control) by heating lamp. Endotracheal tube was inserted to assure adequate respiration under anesthesia. Number 25 needle filled with heparinized saline was connected to pressure transducer and introduced into corpus cavernosum penis. Intracavernous pressure and II standard lead on an ECG was continuously recorded on physiograph DMP-4B (Narco Bio-Systems, USA). In some experiments arterial pressure in common carotid artery was also recorded. The effects of experimental substances were determined both at intravenous and intracavernous introduction route. For the intracorporeal injection the substances were dissolved in isotonic (0.9%) NaCl solution and the dose introduced in 0.05 ml of liquid. […] Gamma-butyrobetaine (GBB) was introduced separately and in combination with THP or phosphodiesterase inhibitor, in particular, sildenafil. Gamma-butyrobetaine (GBB) (intracavernous injection 0.02-0.1 mg per rat, usually 0.05 mg per rat; intravenously 2.0 mg/kg) and THP (intracavernous injection 0.2 mg per rat; intravenously 10.0 mg/kg) were introduced separately and as combination (GBB+THP).

[3] = subc.; cited from earlier work
[4] = test system: intracavernous pressure (corpus cavernosum penis); assay: intracavernous pressure in narcotized rats, intravenous injection; format: in vivo; conditions: for effect on intracorporeal pressure (in words): intravenous; for Duration of effect / Changes of intracavernous pressure / Reflectory increase of intracavernous pressure: intravenously: GBB 2.0 mg/kg, THP 10.0 mg/kg, sildenafil 3.0 mg/kg, papaverine 2.0 mg/kg
Description: as §1, with “Adult male rats, weighing 300-410 g were used. The influence” for “The influence”, “combination (GBB+THP). […] Since the intracavernous injection is not popular due to inconvenience to patient, intravenous route was selected for further evaluation.” for “combination (GBB+THP).”

[5] = 1 week of therapy, drinking water, GBB 15 mg/kg daily, THP 60 mg/kg daily
[6] = 1 week of therapy, drinking water, GBB 15 mg/kg daily, THP 60 mg/kg daily, 10 min exposition
[7] = 4 weeks of therapy, behaviour marks 0-3
[8] = 4 weeks of therapy, drinking water, GBB 15 mg/kg daily, THP 60 mg/kg daily
[9] = 6 weeks of therapy, behaviour marks 0-3
[10] = 6 weeks of therapy, drinking water, GBB 15 mg/kg daily, THP 60 mg/kg daily
[11] = Post-therapy (48-50 hours after discontinuation)
[12] = Post-therapy (48-50 hours after discontinuation), behaviour marks 0-3

Compound | delay time before attempts of mounting [1, 5] [min] | number of copulations [1, 6] | rat post-coital agitation period [1, 7] | number of copulations [1, 8] | number of mounting attempts of male rats [1, 8] | rat post-coital agitation period [1, 9] | delay time before attempts of mounting [1, 10] [min] | number of mounting attempts of male rats [1, 10] | delay time before attempts of mounting [1, 11] [min] | number of copulations [1, 11] | number of mounting attempts of male rats [1, 11] | rat post-coital agitation period [1, 12] | effect on intracorporeal pressure (in words) [2] | effect on intracorporeal pressure (in words) [4] | Duration of effect [4] [min] | Increase of intracorporeal pressure, % of papaverine ([2]; dose 0.2 mg per rat) [%] | Changes of intracavernous pressure [4] [mm Hg] | Reflectory increase of intracavernous pressure [4] [mm Hg] | also measured
C[N+](C)(C)CCCC(=O)[O-] [GBB, gamma-butyrobetaine] | 3.7 ± 0.9 | 0.8 ± 0.3 | 1.2 ± 0.3 | 1.3 ± 0.5 | 3.7 ± 0.7 | 1.5 ± 0.4 | 2.8 ± 0.9 | 3.3 ± 0.6 | 2.6 ± 0.6 | 0.7 ± 0.2 | 3.2 ± 0.5 | 1.2 ± 0.3 | pronounced dose-dependent, but relatively short-termed increase; also recorded: inferior to that of papaverine | highly efficient | 2.8 ± 0.7 |  |  |  | Increase of intracorporeal pressure, % of papaverine ([2]; dose 0.02 mg per rat): 30.6%; Increase of intracorporeal pressure ([2]; dose 0.05 mg per rat): 31.5 ± 5.1 mmHg; Increase of intracorporeal pressure, % of papaverine ([2]; dose 0.05 mg per rat): 85.7%; LD50 [3]: 7000 mg/kg
COc1ccc(Cc2nccc3cc(OC)c(OC)cc23)cc1OC [Papaverine, Papaverine hydrochloride] |  |  |  |  |  |  |  |  |  |  |  |  |  | little effect | 0.9 ± 0.9 | 100 | 0.6 ± 0.6 | 0.3 ± 0.3 | Duration of effect ([2]; dose 0.2 mg per rat): 8.8 ± 1.4 min; Increase of intracorporeal pressure ([2]; dose 0.2 mg per rat): 36.75 ± 4.1 mmHg
CCCc1nn(C)c2c(=O)[nH]c(-c3cc(S(=O)(=O)N4CCN(C)CC4)ccc3OCC)nc12 [Sildenafil, sildenafil] |  |  |  |  |  |  |  |  |  |  |  |  |  |  | 2.5 ± 1.1 |  |  |  | Duration of effect ([2]; dose 0.15 mg per rat): 7.5 ± 2.7 min; Increase of intracorporeal pressure ([2]; dose 0.15 mg per rat): 38.5 ± 7.3 mmHg; Increase of intracorporeal pressure, % of papaverine ([2]; dose 0.15 mg per rat): 104.8%
C[N+](C)(C)NCCC(=O)[O-] [THP, 3-(2,2,2-trimethylhydrazinium)propionate] | 5.3 ± 1.0 | 0.5 ± 0.3 | 1.4 ± 0.5 | 1.2 ± 0.4 | 3.0 ± 0.7 | 1.8 ± 0.3 | 2.3 ± 0.5 | 3.7 ± 0.5 | 2.4 ± 0.7 | 1.0 ± 0.3 | 3.4 ± 0.7 | 1.2 ± 0.4 | did not produce significant changes | little effect | 0.9 ± 0.5 | 7.3 | 1.3 ± 0.9 | 2.7 ± 1.2 | rat post-coital agitation period ([1]; 1 week of therapy, behaviour marks 0-3 during 5 min after removal of females): 1.0 ± 0.4; number of mounting attempts of male rats [1, 6]: 2.7 ± 0.6; delay time before attempts of mounting [1, 8]: 2.1 ± 0.5 min; number of copulations [1, 10]: 0.8 ± 0.3
